Data reported in paper PMC7070167, “Cell‐permeable high‐affinity tracers for Gq proteins provide structural insights, reveal distinct binding kinetics and identify small molecule inhibitors” (British Journal of Pharmacology, 2020).

Tests used:
Gq proteins = target: T1, Gq proteins (Homo sapiens, UniProt P50148); assay: Competition binding at human platelet membrane preparations; settings: for inhibition or modulation of [^3H]PSB‐15900 binding by G protein inhibitors: concentrations up to 100 μM, preincubation for 3 hr
T1 construct: Native cell membrane preparations from rat brain cortex and human blood platelets; host or cells: human platelets (intact suspension or membrane preparation)
T1 sequence (P50148 1-359): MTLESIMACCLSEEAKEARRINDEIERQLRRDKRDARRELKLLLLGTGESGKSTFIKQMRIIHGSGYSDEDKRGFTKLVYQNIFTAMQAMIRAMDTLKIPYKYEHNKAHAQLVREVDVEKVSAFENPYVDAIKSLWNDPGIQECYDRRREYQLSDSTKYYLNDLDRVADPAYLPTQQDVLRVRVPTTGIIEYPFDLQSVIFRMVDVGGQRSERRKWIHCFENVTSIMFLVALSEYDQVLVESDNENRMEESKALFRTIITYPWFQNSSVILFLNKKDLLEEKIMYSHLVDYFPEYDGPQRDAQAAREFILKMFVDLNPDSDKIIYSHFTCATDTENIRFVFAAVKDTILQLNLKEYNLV
Method: Apheresis‐purified human thrombocyte‐plasma concentrates were centrifuged (1,000 g at 4°C for 10 min), and the supernatant was decanted and centrifuged again (at 48,400 g, 4°C, for 60 min). The supernatant was kept and used as platelet‐poor plasma for control experiments; the formed pellet was resuspended in buffer 1 (50‐mM Tris–HCl, 5‐mM EDTA, and 150‐mM NaCl) and centrifuged at 48,400 g, 4°C for 60 min. The supernatant was discarded again and the pellet was resuspended in buffer 2 (5‐mM Tris–HCl and 5‐mM EDTA). The cell suspension was homogenized using an Ultra‐Turrax® (IKA Laborechnik, Staufen, Germany) for 1 min at a speed level of 4, subsequently transferred into cryovials, and stored at −80°C before use (the preparation is stable for several months). For radioligand binding assays, 50 μg of protein per vial was used, determined by the method of Bradford (Bio‐Rad Protein Assay).
The experiments were performed in 50‐mM Tris–HCl buffer, pH 7.4. The final assay volume of 200 μl contained 5 μl of test compound in DMSO, 50 μl of [^3H]PSB‐15900 or [^3H]PSB‐16254, respectively, in buffer, 5 nM of final concentration, and 100 μl of human platelet membrane preparation (50 μg of protein) or intact human platelets (7.5 × 10^6 cells/vial). Non‐specific binding was determined in the presence of 5‐μM FR. The incubation was started by the addition of membrane preparation and was performed at 37°C for 1 hr with gentle shaking. It was terminated by rapid vacuum filtration through GF/C glass‐fibre filters using a Brandel 24‐well harvester. The filters were rinsed three times with approximately 3 ml each of ice‐cold Tris–HCl buffer, 50 mM, pH 7.4 containing 0.1% Tween 20 and 0.1% BSA, to separate bound from free radioligand. The filters were punched out and transferred to scintillation vials. Luma Safe® scintillation cocktail (2.5 ml) was added, and after 6 hr of incubation, the samples were counted for 1 min each, using a liquid scintillation counter (counting efficiency 53%). Experiments in the presence of GTP were additionally performed after preincubation of the membrane preparation with GTP for 1 hr. pIC50 and pKi values were calculated using equations for one‐site competition as implemented in GraphPad Prism 6.01 (GraphPad Inc., La Jolla, CA, USA).

[1] = test system: Gq signalling via endogenously expressed M3 receptor; assay: Calcium mobilization assay, carbachol-induced (M3 receptor) in 1321N1 astrocytoma cells; assay type: cell-based, human
Method: (§1) The functional activity of YM, FR, and Ebselen as Gq protein inhibitors was determined by assessing their ability to antagonize ADP‐induced calcium mobilization in 1321N1 astrocytoma cells stably transfected with the human P2Y1 receptor, which is a Gq‐coupled receptor. In addition, the compounds' inhibitory effects on Carbachol‐induced calcium mobilization were studied in the same cell line, which endogenously express the Gq‐coupled muscarinic M3 ACh receptor. The assays were performed according to a previously described procedure (Rafehi et al., 2017) using a NOVOstar microplate reader (BMG Labtech, Offenburg, Germany).

[2] = test system: Gq signalling via recombinantly expressed human P2Y1 receptor; assay: Calcium mobilization assay, ADP-induced (P2Y1 receptor) in 1321N1 astrocytoma cells; assay type: cell-based
Method: as §1

[3] = test system: primary murine brown adipocytes; assay: Differentiation of primary murine brown adipocytes (Oil Red O, UCP-1, PPARγ); assay type: cell-based, mouse; settings: Ebselen 50 μM, 9 days
Method: Ten‐ to 12‐week‐old pregnant wild‐type C57Bl6/J mice were purchased from Charles River and housed in pathogen‐free environment under a 12‐hr light/12‐hr dark cycle having free access to standard rodent diet and water. Brown adipose tissue (BAT)‐derived mesenchymal stem cells were isolated from interscapular BAT of newborn wild‐type mice and further cultured as previously described (Klepac et al., 2016). Specifically, 170,000 cells per well were seeded in growth medium (GM; DMEM supplemented with 10% FBS and 1% penicillin–streptomycin mixture from Sigma‐Aldrich) in a six‐well plate (Day −4); 48 hr later (Day −2), GM was replaced by differentiation medium (DM), which is GM supplemented with 20‐nM insulin and 1‐nM triiodothyronine. At Day 0, cells were treated for 48 hr with BAT induction medium (DM supplemented with 0.5‐mM isobutylmethylxanthine and 1‐μM dexamethasone). For the next 5 days, cells were treated with DM that was replenished every second day. The indicated treatments were added from Day −2 to Day +7 for 9 days to the media, endothelin‐1 (ET‐1; Tocris, 10 nM), or Ebselen (50 μM). Ebselen was added 3 hr prior to ET‐1 treatment. On Day +7, differentiation of cells into mature adipocytes was analysed using Oil Red O staining of lipid droplets. Mature brown adipocytes were washed with PBS and then fixed in 4% paraformaldehyde. […]

[4] = test system: Gq signalling (IP1 production) induced by ET‐1; assay: IP1 assay in brown preadipocytes, ET-1; assay type: cell-based, mouse; settings: Ebselen 50 μM pretreatment, ET‐1 10 nM
Method: (§2) Intracellular concentrations of the second messenger IP1 in brown preadipocytes were quantified using the HTRF‐IP1 kit (Cisbio Bioassays) following the manufacturer's instructions. […] For ET‐1 experiments, non‐transduced preadipocytes were used. Cells were cultivated for 48 hr in GM (37°C, 5% CO2). For the assay, cells were trypsinized, and cell pellet was washed with PBS. Cell pellet was then resuspended in stimulation buffer containing 50‐mM LiCl and transferred to a 384‐well microtitre plate at a density of 100,000 cells per well in 7 μl of stimulation buffer. After 10 min of incubation, 3.5 μl of stimulation buffer containing inhibitors (50 μM of Ebselen, 1 μM of FR) were added for 1 hr followed by addition of 3.5 μl of stimulation buffer containing agonists (ET‐1, 10 nM; CNO, 10 μM) for 30 min; 3 μl of IP1‐d2 conjugate followed by 3 μl of europium cryptate‐labelled anti‐IP1 antibody dissolved in lysis buffer were added to the cells. After a further dark incubation of 1 hr at room temperature, time‐resolved fluorescence was measured at 620 and 665 nm with the EnSpire (Perkin Elmer) multimode plate reader.

[5] = test system: Gq signalling (IP1 production) via Dq; assay: IP1 assay in brown preadipocytes expressing Gq-coupled designer GPCR (Dq), CNO; assay type: cell-based, mouse; settings: Ebselen 50 μM
Method: as §2

N[C@@H](CSSC[C@H](N)C(=O)N1CCn2cc(-c3ccccc3)nc2[C@@H]1CC1CCCCC1)C(=O)N1CCn2cc(-c3ccccc3)nc2[C@@H]1CC1CCCCC1 [BIM‐46187]
inhibition or modulation of [^3H]PSB‐15900 binding by G protein inhibitors (Gq proteins): did not show any inhibition or modulation

Nc1nc2c(ncn2[C@@H]2O[C@H](COP(=O)(O)OP(=O)(O)OP(=O)(O)O)[C@@H](O)[C@H]2O)c(=O)[nH]1 [GTP]
modulation of [^3H]PSB‐15900 binding by nucleotides (Gq proteins; 100 μM and 1 mM, human platelet membranes, 5 nM radioligand): not allosterically modulated

O=c1c2ccccc2[se]n1-c1ccccc1 [Ebselen]
extent of block of carbachol‐induced calcium mobilization [1]: completely blocked | IC50 ([1]; Homo sapiens, versus Carbachol (EC80), M3 receptor, read-out: pIC50, inhibition of calcium mobilization (converted)): 4.37 µM | IC50 ([2]; Homo sapiens, versus ADP (EC80), P2Y1 receptor, 1321N1 astrocytoma cells, read-out: pIC50, inhibition of calcium mobilization (converted)): 2.34 µM | extent of block of ADP‐induced calcium mobilization ([2]; recombinant 1321N1 astrocytoma cells): completely blocked | Ki (Gq proteins; versus [^3H]PSB‐15900 (5 nM), human platelet membranes, 37°C, read-out: pKi (converted)): 9.33 µM | effect on differentiation of brown adipocytes [3]: enhanced | effect on ET‐1‐induced inhibition of brown adipogenesis ([3]; ET‐1 10 nM): rescued | effect on ET‐1‐induced IP1 production [4]: attenuated | effect on CNO‐induced increase in IP1 levels ([5]; CNO 10 μM, Gq‐DREADD expressing preadipocytes): significantly reduced | effect on basal IP1 levels ([5]; absence of agonist (Ctrl), acute treatment): did not affect

N[C@@H](CS)C(=O)N1CCn2cc(-c3ccccc3)nc2[C@@H]1CC1CCCCC1 [BIM‐46174]
inhibition or modulation of [^3H]PSB‐15900 binding by G protein inhibitors (Gq proteins): did not show any inhibition or modulation
